Measured values: PubChem BioAssay AID1963986 (Molecular Pharmacology Branch, DTP, NCI, 2024)

System: 171881-019-R-J1-PDC tumor spheroid viability
Assay: Anticancer human tumor 171881-019-R-J1-PDC patient-derived invasive breast carcinoma cell line growth inhibition [PI3K]
Conditions: spheroids with HUVEC and MSC; for IC50: curve of first compound; for viability, T/C: stronger effect = lower value
In short: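 We assembled tumor spheroids that included a stromal compartment of HUVEC and MSCs, then exposed them to targeted agents alone and together with PI3K pathway inhibitors. Concentration series descended by half-log from clinically achievable Cmax levels. Viability served as the endpoint.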

[1] = second compound 0.0316 µM, first compound 0.0316 µM
[2] = second compound 0.0316 µM, first compound 0.1 µM
[3] = second compound 0.1 µM, first compound 0.0316 µM
[4] = second compound 0.1 µM, first compound 0.1 µM
[5] = second compound 0.316 µM, first compound 0.0316 µM
[6] = second compound 0.316 µM, first compound 0.1 µM
[7] = second compound 1 µM, first compound 0.0316 µM
[8] = second compound 1 µM, first compound 0.1 µM
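Also: spheroids exposed to compound for 7 days before viability read.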
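For viability, T/C in this document: 100% = DMSO vehicle-treated spheroids.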

## CC(=O)c1c(C)c2cnc(Nc3ccc(N4CCNCC4)cn3)nc2n(C2CCCC2)c1=O + CC(Nc1ncnc2nc[nH]c12)c1cc2cccc(Cl)c2c(=O)n1-c1ccccc1
Second compound 0.0316 µM
  IC50: > 100 nM
Second compound 0.1 µM
  IC50: > 100 nM
Second compound 0.316 µM
  IC50: > 100 nM
Second compound 1 µM
  IC50: > 100 nM
Second compound 3.16 µM
  IC50: > 100 nM
Second compound 10 µM
  IC50: > 100 nM
Second compound 0.0316 µM, first compound 0.000316 µM
  viability, T/C: 91.9%
Second compound 0.0316 µM, first compound 0.001 µM
  viability, T/C: 88%
Second compound 0.0316 µM, first compound 0.00316 µM
  viability, T/C: 93%
Second compound 0.0316 µM, first compound 0.01 µM
  viability, T/C: 90.6%
[1]
  viability, T/C: 102%
[2]
  viability, T/C: 92.9%
Second compound 0.1 µM, first compound 0.000316 µM
  viability, T/C: 99.9%
Second compound 0.1 µM, first compound 0.001 µM
  viability, T/C: 96.8%
Second compound 0.1 µM, first compound 0.00316 µM
  viability, T/C: 98.3%
Second compound 0.1 µM, first compound 0.01 µM
  viability, T/C: 91.7%
[3]
  viability, T/C: 97.6%
[4]
  viability, T/C: 88.7%
Second compound 0.316 µM, first compound 0.000316 µM
  viability, T/C: 91%
Second compound 0.316 µM, first compound 0.001 µM
  viability, T/C: 88.5%
Second compound 0.316 µM, first compound 0.00316 µM
  viability, T/C: 96%
Second compound 0.316 µM, first compound 0.01 µM
  viability, T/C: 107%
[5]
  viability, T/C: 106%
[6]
  viability, T/C: 87.8%
Second compound 1 µM, first compound 0.000316 µM
  viability, T/C: 104%
Second compound 1 µM, first compound 0.001 µM
  viability, T/C: 87.6%
Second compound 1 µM, first compound 0.00316 µM
  viability, T/C: 100%
Second compound 1 µM, first compound 0.01 µM
  viability, T/C: 94.9%
[7]
  viability, T/C: 102%
[8]
  viability, T/C: 82.2%
Second compound 3.16 µM, first compound 0.000316 µM
  viability, T/C: 94.2%
Second compound 3.16 µM, first compound 0.001 µM
  viability, T/C: 90.3%
Second compound 3.16 µM, first compound 0.00316 µM
  viability, T/C: 91.2%
Second compound 3.16 µM, first compound 0.01 µM
  viability, T/C: 93.2%
Second compound 3.16 µM, first compound 0.0316 µM
  viability, T/C: 103%
Second compound 3.16 µM, first compound 0.1 µM
  viability, T/C: 79.1%
Second compound 10 µM, first compound 0.000316 µM
  viability, T/C: 62.4%
Second compound 10 µM, first compound 0.001 µM
  viability, T/C: 60.1%
Second compound 10 µM, first compound 0.00316 µM
  viability, T/C: 59.1%
Second compound 10 µM, first compound 0.01 µM
  viability, T/C: 63.8%
Second compound 10 µM, first compound 0.0316 µM
  viability, T/C: 64.9%
Second compound 10 µM, first compound 0.1 µM
  viability, T/C: 56.9%

## CC(Cn1ccc(-c2ccc(C#N)c(Cl)c2)n1)NC(=O)c1cc(C(C)O)[nH]n1 (centres undefined) + CC(Nc1ccc2c(c1)OCCn1cc(N3C(=O)OCC3C(F)F)nc1-2)C(N)=O
Second compound 0.00316 µM
  IC50: > 10000 nM
Second compound 0.01 µM
  IC50: > 10000 nM
Second compound 0.0316 µM
  IC50: 4210 nM
Second compound 0.1 µM
  IC50: < 31.6 nM
Second compound 0.316 µM
  IC50: < 31.6 nM
Second compound 1 µM
  IC50: < 31.6 nM
Second compound 0.00316 µM, first compound 0.0316 µM
  viability, T/C: 74.5%
Second compound 0.00316 µM, first compound 0.1 µM
  viability, T/C: 85%
Second compound 0.00316 µM, first compound 0.316 µM
  viability, T/C: 92%
Second compound 0.00316 µM, first compound 1 µM
  viability, T/C: 93.9%
Second compound 0.00316 µM, first compound 3.16 µM
  viability, T/C: 88.5%
Second compound 0.00316 µM, first compound 10 µM
  viability, T/C: 54.3%
Second compound 0.01 µM, first compound 0.0316 µM
  viability, T/C: 75.1%
Second compound 0.01 µM, first compound 0.1 µM
  viability, T/C: 80.9%
Second compound 0.01 µM, first compound 0.316 µM
  viability, T/C: 78.6%
Second compound 0.01 µM, first compound 1 µM
  viability, T/C: 80.5%
Second compound 0.01 µM, first compound 3.16 µM
  viability, T/C: 83.4%
Second compound 0.01 µM, first compound 10 µM
  viability, T/C: 57.7%
[1]
  viability, T/C: 50.2%
[2]
  viability, T/C: 57.4%
Second compound 0.0316 µM, first compound 0.316 µM
  viability, T/C: 54.4%
Second compound 0.0316 µM, first compound 1 µM
  viability, T/C: 53.7%
Second compound 0.0316 µM, first compound 3.16 µM
  viability, T/C: 59.2%
Second compound 0.0316 µM, first compound 10 µM
  viability, T/C: 35.1%
[3]
  viability, T/C: 41.1%
[4]
  viability, T/C: 36.2%
Second compound 0.1 µM, first compound 0.316 µM
  viability, T/C: 38.5%
Second compound 0.1 µM, first compound 1 µM
  viability, T/C: 39.8%
Second compound 0.1 µM, first compound 3.16 µM
  viability, T/C: 39%
Second compound 0.1 µM, first compound 10 µM
  viability, T/C: 27.3%
[5]
  viability, T/C: 26.7%
[6]
  viability, T/C: 26.5%
Second compound 0.316 µM, first compound 0.316 µM
  viability, T/C: 25.8%
Second compound 0.316 µM, first compound 1 µM
  viability, T/C: 27%
Second compound 0.316 µM, first compound 3.16 µM
  viability, T/C: 25.8%
Second compound 0.316 µM, first compound 10 µM
  viability, T/C: 19.4%
[7]
  viability, T/C: 19.6%
[8]
  viability, T/C: 20.6%
Second compound 1 µM, first compound 0.316 µM
  viability, T/C: 19.7%
Second compound 1 µM, first compound 1 µM
  viability, T/C: 20.8%
Second compound 1 µM, first compound 3.16 µM
  viability, T/C: 19.1%
Second compound 1 µM, first compound 10 µM
  viability, T/C: 14.3%
